Values quoted from earlier work, collected in publication PMC13575890, “Investigating substituted phenylacetamide ligands in the D4R extended binding pocket” (Bioorganic & medicinal chemistry letters, 2026).

Tests used:
human D3R = biological target: T1, human D3R (Homo sapiens, UniProt P35462); design: method as in PMID 30883109; conditions: membranes from HEK 293 cells stably expressing hD3R; previously reported compounds; read-out: Ki (nM) ± SEM [3H]N-methylspiperone D3R
T1 construct: expressed in transfected cells

human D4R = biological target: T2, human D4R (Homo sapiens, UniProt P21917); design: method as in PMID 30883109; conditions: membranes from HEK 293 cells stably expressing hD4R; previously reported compounds; read-out: Ki (nM) ± SEM [3H]N-methylspiperone D4R
T2 construct: expressed in transfected cells
T2 sequence (P21917 1-419): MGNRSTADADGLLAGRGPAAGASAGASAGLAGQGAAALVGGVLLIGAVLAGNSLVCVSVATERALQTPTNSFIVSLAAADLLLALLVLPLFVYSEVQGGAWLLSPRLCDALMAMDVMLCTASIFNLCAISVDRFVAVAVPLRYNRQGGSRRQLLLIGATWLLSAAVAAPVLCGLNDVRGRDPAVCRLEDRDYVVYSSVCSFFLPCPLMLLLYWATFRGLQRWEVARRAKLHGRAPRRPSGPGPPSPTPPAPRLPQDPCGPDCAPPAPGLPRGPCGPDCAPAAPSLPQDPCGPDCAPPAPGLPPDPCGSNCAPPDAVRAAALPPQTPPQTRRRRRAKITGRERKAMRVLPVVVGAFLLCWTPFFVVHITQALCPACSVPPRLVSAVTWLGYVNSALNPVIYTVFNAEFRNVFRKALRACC

T1 sequence (P35462 whole entry): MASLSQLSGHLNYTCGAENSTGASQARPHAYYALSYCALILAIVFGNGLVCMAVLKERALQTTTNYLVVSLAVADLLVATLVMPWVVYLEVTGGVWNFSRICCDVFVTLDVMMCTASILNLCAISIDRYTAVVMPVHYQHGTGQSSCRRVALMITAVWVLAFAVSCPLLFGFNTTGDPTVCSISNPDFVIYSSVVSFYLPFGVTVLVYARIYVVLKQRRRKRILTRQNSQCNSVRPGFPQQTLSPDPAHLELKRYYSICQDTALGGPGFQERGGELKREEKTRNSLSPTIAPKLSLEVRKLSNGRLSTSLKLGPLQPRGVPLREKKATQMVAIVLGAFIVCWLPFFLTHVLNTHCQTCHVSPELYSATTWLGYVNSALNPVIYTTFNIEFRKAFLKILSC

Row | Structure (SMILES) | Ki (human D3R) | Ki (human D4R)
1 | Cc1cccc(NC(=O)CN2CCN(c3ccccn3)CC2)c1 [Compound 2] | > 50000 nM | 75.1 ± 0.7 nM
2 | CCc1cccc(NC(=O)CN2CCN(c3ccccn3)CC2)c1 [Compound 3] |  | 66.6 ± 1.8 nM
